Where “and” joins values, the source holds several entries; their conditions need not be identical. Equal values may be shown once.
What was measured:
[1] = Animal weight of tumor-bearing mice
[2] = Transcellular transport study, apparent permeability; conditions: pig, LLC-PK1

COCc1ccc(NC(=O)c2c(C#CCN3CCOCC3)n(C3(C)CC3)c3ncnc(N)c23)cc1 [Vepafestinib, 4-amino-N-[4-(methoxymethyl)phenyl]-7-(1-methylcyclopropyl)-6-[3-(morpholin-4-yl)prop-1-yn-1-yl]-7H-pyrrolo[2,3-d]pyrimidine-5-carboxamide]
Animal Weight, Mean ([1]; Ba/F3-KIF5B::RET (Fig 8e), 25 mg/kg BID, day 0): 25.1 g
Animal Weight, Mean ([1]; Ba/F3-KIF5B::RET (Fig 8e), 25 mg/kg BID, day 4): 27.6 g
Animal Weight, Mean ([1]; Ba/F3-KIF5B::RET (Fig 8e), 25 mg/kg BID, day 8): 27.2 g
Animal Weight, Mean ([1]; Ba/F3-KIF5B::RET (Fig 8e), 25 mg/kg BID, day 11): 27.1 g
Animal Weight, Mean ([1]; Ba/F3-KIF5B::RET (Fig 8e), 25 mg/kg BID, day 15): 27.6 g
Animal Weight, Mean ([1]; Ba/F3-KIF5B::RET (Fig 8e), 50 mg/kg BID, day 0): 25.4 g
Animal Weight, Mean ([1]; Ba/F3-KIF5B::RET (Fig 8e), 50 mg/kg BID, day 4): 27.8 g
Animal Weight, Mean ([1]; Ba/F3-KIF5B::RET (Fig 8e), 50 mg/kg BID, day 8): 26.3 g
Animal Weight, Mean ([1]; Ba/F3-KIF5B::RET (Fig 8e), 50 mg/kg BID, day 11): 25.3 g
Animal Weight, Mean ([1]; Ba/F3-KIF5B::RET (Fig 8e), 50 mg/kg BID, day 15): 25.9 g
Animal Weight, Mean ([1]; Ba/F3-KIF5B::RET G810R (Fig 8f), Vepafestinib 10 mg/kg BID, day 1): 25.86 g
Animal Weight, Mean ([1]; Ba/F3-KIF5B::RET G810R (Fig 8f), Vepafestinib 10 mg/kg BID, day 4): 25.30 g
Animal Weight, Mean ([1]; Ba/F3-KIF5B::RET G810R (Fig 8f), Vepafestinib 10 mg/kg BID, day 8): 24.90 g
Animal Weight, Mean ([1]; Ba/F3-KIF5B::RET G810R (Fig 8f), Vepafestinib 10 mg/kg BID, day 11): 25.72 g
Animal Weight, Mean ([1]; Ba/F3-KIF5B::RET G810R (Fig 8f), Vepafestinib 10 mg/kg BID, day 15): 25.22 g
Animal Weight, Mean ([1]; Ba/F3-KIF5B::RET G810R (Fig 8g), Vepafestinib 50 mg/kg BID, day 1): 23.9 g
Animal Weight, Mean ([1]; Ba/F3-KIF5B::RET G810R (Fig 8g), Vepafestinib 50 mg/kg BID, day 4): 24.7 g
Animal Weight, Mean ([1]; Ba/F3-KIF5B::RET G810R (Fig 8g), Vepafestinib 50 mg/kg BID, day 8): 24.9 g
Animal Weight, Mean ([1]; Ba/F3-KIF5B::RET G810R (Fig 8g), Vepafestinib 50 mg/kg BID, day 11): 24.3 g
Animal Weight, Mean ([1]; Ba/F3-KIF5B::RET G810R (Fig 8g), Vepafestinib 50 mg/kg BID, day 15): 24.2 g
Animal Weight (g), Mean ([1]; Ba/F3-KIF5B::RET tumor-bearing mice (Ext. Data Fig 8i), 50 mg/kg BID, day 1): 25.8 g
Animal Weight (g), Mean ([1]; Ba/F3-KIF5B::RET tumor-bearing mice (Ext. Data Fig 8i), 50 mg/kg BID, day 4): 26.2 g
Animal Weight (g), Mean ([1]; Ba/F3-KIF5B::RET tumor-bearing mice (Ext. Data Fig 8i), 50 mg/kg BID, day 8): 26.0 g
Animal Weight (g), Mean ([1]; Ba/F3-KIF5B::RET tumor-bearing mice (Ext. Data Fig 8i), 50 mg/kg BID, day 11): 25.3 g
Animal Weight (g), Mean ([1]; Ba/F3-KIF5B::RET tumor-bearing mice (Ext. Data Fig 8i), 50 mg/kg BID, day 15): 26.9 g
Animal Weight (g), Mean ([1]; Ba/F3-KIF5B::RET tumor-bearing mice (Ext. Data Fig 8h), 50 mg/kg BID, day 1): 28.4 g
Animal Weight (g), Mean ([1]; Ba/F3-KIF5B::RET tumor-bearing mice (Ext. Data Fig 8h), 50 mg/kg BID, day 4): 28.5 g
Animal Weight (g), Mean ([1]; Ba/F3-KIF5B::RET tumor-bearing mice (Ext. Data Fig 8h), 50 mg/kg BID, day 8): 29.3 g
Animal Weight (g), Mean ([1]; Ba/F3-KIF5B::RET tumor-bearing mice (Ext. Data Fig 8h), 50 mg/kg BID, day 11): 29.0 g
Animal Weight (g), Mean ([1]; Ba/F3-KIF5B::RET tumor-bearing mice (Ext. Data Fig 8h), 50 mg/kg BID, day 15): 29.0 g
effect on animal health or animal weight ([1]; ECLC5B xenograft, all dosages, P > 0.05): No dosage of vepafestinib had any adverse effect
Animal Weight ([1]; ECLC5 Xenografts, 25 mg/kg BID, treatment day 7, individual animals, 25 mg/kg): 24 g (2×) and 22 g and 21 g and 27 g
Animal Weight ([1]; ECLC5 Xenografts, 25 mg/kg BID, treatment day 11, individual animals, 25 mg/kg): 24 g and 22 g
Animal Weight ([1]; ECLC5 Xenografts, 50 mg/kg BID, treatment day 7, individual animals, 50 mg/kg): 20 g and 23 g (2×) and 21 g and 22 g
Animal Weight ([1]; ECLC5 Xenografts, 50 mg/kg QD, treatment day 7, individual animals, 50 mg/kg): 22 g (2×) and 21 g and 23 g and 24 g
Animal Weight ([1]; ECLC5 Xenografts, 100 mg/kg QD, treatment day 7, individual animals, 100 mg/kg): 22 g (3×) and 24 g and 25 g
Animal Weight (g), Mean ([1]; LC-2/ad xenograft mice, 25 mg/kg BID, day 0): 25.9 g
Animal Weight (g), Mean ([1]; LC-2/ad xenograft mice, 25 mg/kg BID, day 4): 25.1 g
Animal Weight (g), Mean ([1]; LC-2/ad xenograft mice, 25 mg/kg BID, day 8): 24.6 g
Animal Weight (g), Mean ([1]; LC-2/ad xenograft mice, 25 mg/kg BID, day 11): 24.4 g
Animal Weight (g), Mean ([1]; LC-2/ad xenograft mice, 25 mg/kg BID, day 15): 23.5 g
Animal Weight (g), Mean ([1]; LC-2/ad xenograft mice, 50 mg/kg BID, day 0): 25.1 g
Animal Weight (g), Mean ([1]; LC-2/ad xenograft mice, 50 mg/kg BID, day 4): 25.3 g
Animal Weight (g), Mean ([1]; LC-2/ad xenograft mice, 50 mg/kg BID, day 8): 24.2 g
Animal Weight (g), Mean ([1]; LC-2/ad xenograft mice, 50 mg/kg BID, day 11): 24.4 g
Animal Weight (g), Mean ([1]; LC-2/ad xenograft mice, 50 mg/kg BID, day 15): 23.5 g
Animal Weight (g), Mean ([1]; LC-2/ad xenograft mice, 50 mg/kg QD, day 0): 25.0 g
Animal Weight (g), Mean ([1]; LC-2/ad xenograft mice, 50 mg/kg QD, day 4): 24.8 g
Animal Weight (g), Mean ([1]; LC-2/ad xenograft mice, 50 mg/kg QD, day 8): 24.7 g
Animal Weight (g), Mean ([1]; LC-2/ad xenograft mice, 50 mg/kg QD, day 11): 25.0 g
Animal Weight (g), Mean ([1]; LC-2/ad xenograft mice, 50 mg/kg QD, day 15): 24.3 g
Animal Weight ([1]; NIH-3T3-CCDC6::RET xenografts, 25 mg/kg BID, day 0, 25 mg/kg): 22 g and 21 g and 24 g
Animal Weight ([1]; NIH-3T3-CCDC6::RET xenografts, 25 mg/kg BID, day 2, 25 mg/kg): 23 g and 21 g and 22 g
Animal Weight ([1]; NIH-3T3-CCDC6::RET xenografts, 25 mg/kg BID, day 5, 25 mg/kg): 23 g and 22 g and 24 g
Animal Weight ([1]; NIH-3T3-CCDC6::RET xenografts, 25 mg/kg BID, day 8, 25 mg/kg): 23 g and 22 g
Animal Weight ([1]; NIH-3T3-CCDC6::RET xenografts, 25 mg/kg QD, day 0, 25 mg/kg): 24 g and 22 g and 23 g and 21 g
Animal Weight ([1]; NIH-3T3-CCDC6::RET xenografts, 25 mg/kg QD, day 2, 25 mg/kg): 25 g and 24 g and 22 g
Animal Weight ([1]; NIH-3T3-CCDC6::RET xenografts, 25 mg/kg QD, day 5, 25 mg/kg): 22 g and 23 g and 24 g
Animal Weight ([1]; NIH-3T3-CCDC6::RET xenografts, 25 mg/kg QD, day 8, 25 mg/kg): 25 g and 23 g and 24 g
Animal Weight ([1]; NIH-3T3-CCDC6::RET xenografts, 50 mg/kg BID, day 0, 50 mg/kg): 22 g and 19 g and 21 g
Animal Weight ([1]; NIH-3T3-CCDC6::RET xenografts, 50 mg/kg BID, day 2, 50 mg/kg): 20 g and 24 g and 23 g and 21 g and 22 g
Animal Weight ([1]; NIH-3T3-CCDC6::RET xenografts, 50 mg/kg BID, day 5, 50 mg/kg): 21 g and 24 g and 23 g and 20 g
Animal Weight ([1]; NIH-3T3-CCDC6::RET xenografts, 50 mg/kg BID, day 8, 50 mg/kg): 21 g and 23 g and 24 g
Animal Weight ([1]; NIH-3T3-CCDC6::RET xenografts, 50 mg/kg QD, day 0, 50 mg/kg): 22 g and 21 g
Animal Weight ([1]; NIH-3T3-CCDC6::RET xenografts, 50 mg/kg QD, day 2, 50 mg/kg): 24 g and 23 g
Animal Weight ([1]; NIH-3T3-CCDC6::RET xenografts, 50 mg/kg QD, day 5, 50 mg/kg): 23 g and 24 g
Animal Weight ([1]; NIH-3T3-CCDC6::RET xenografts, 50 mg/kg QD, day 8, 50 mg/kg): 24 g and 25 g
Animal Weight ([1]; NIH-3T3-CCDC6::RET xenografts, 100 mg/kg QD, day 0, 100 mg/kg): 22 g and 21 g and 20 g and 19 g
Animal Weight ([1]; NIH-3T3-CCDC6::RET xenografts, 100 mg/kg QD, day 2, 100 mg/kg): 23 g and 22 g and 19 g
Animal Weight ([1]; NIH-3T3-CCDC6::RET xenografts, 100 mg/kg QD, day 5, 100 mg/kg): 23 g and 22 g and 24 g and 21 g
Animal Weight ([1]; NIH-3T3-CCDC6::RET xenografts, 100 mg/kg QD, day 8, 100 mg/kg): 23 g and 22 g and 24 g and 21 g
Papp at 3 h, 1 μM [2]: 24 ×10⁻⁶ cm/s

Source: paper PMC10518257 (Nature Cancer, 2023)
